Values joined by “and” are separate entries in the source; they are usually repeats but may differ in a detail not shown here. Identical values can stand only once.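 Briefly, cells in 96-well plates were exposed to five compound concentrations for 48 h, and endpoints were estimated by linear interpolation. GI50: concentration for 50% inhibition of growth. TGI marks complete inhibition of growth.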

For 11 compounds, GI50 and TGI results are on record in PubChem BioAssay (NCI).

Test systems include OVCAR-3 ovarian; EKVX NSCLC; HCT-15 colon; MDA-MB-435; NCI/ADR-RES ovarian; CCRF-CEM leukemia; KM12 colon; TK-10 renal; HOP-92 NSCLC; SK-OV-3 ovarian.
Assay in all cases: DTP human tumour cell line panel, 48 h

As for `C#C[C@@]1(O)[C@@H](CO)O[C@@H](n2ccc3c(N)ncnc32)[C@@H]1O`, the GI50 was 2.96 µM with OVCAR-3 ovarian; 1.52 µM with EKVX NSCLC; 0.892 µM with HCT-15 colon; 1.48 µM in the assay with MDA-MB-435; 0.791 µM with NCI/ADR-RES ovarian; 2.3 µM in the assay on CCRF-CEM leukemia. Moreover, the GI50 in the assay on KM12 colon was 1.82 µM; with TK-10 renal it was 2.65 µM; in the assay with HOP-92 NSCLC, 2.04 µM; with SK-OV-3 ovarian, 1.07 µM. For the same compound, the TGI in the assay on OVCAR-3 ovarian was 12 µM; in the assay on EKVX NSCLC, 5.43 µM; with HCT-15 colon, 4.62 µM; in the assay with MDA-MB-435, 3.49 µM; in the assay with NCI/ADR-RES ovarian, 7.28 µM; in the assay on CCRF-CEM leukemia, > 100 µM. Also, the TGI was 10.9 µM in the assay with KM12 colon, 9.48 µM in the assay on TK-10 renal, 5.56 µM in the assay on HOP-92 NSCLC and 5.24 µM in the assay on SK-OV-3 ovarian.

`O=C(Nc1ccccc1)NS(=O)(=O)c1ccc(N2N=C3c4ccccc4CC3C2c2ccccn2)cc1` (stereo not drawn): the GI50 was 21.6 µM in the assay on OVCAR-3 ovarian; 27.8 µM in the assay with EKVX NSCLC; 23.1 µM in the assay on HCT-15 colon; 21.4 µM in the assay with MDA-MB-435; 64.4 µM in the assay on NCI/ADR-RES ovarian; 40.9 µM in the assay on CCRF-CEM leukemia. Also, the GI50 with KM12 colon was 24.8 µM; with TK-10 renal, 11.7 µM; in the assay on HOP-92 NSCLC, 74.9 µM; in the assay on SK-OV-3 ovarian it was > 100 µM. For the same compound, the TGI was 74.4 µM in the assay on OVCAR-3 ovarian; > 100 µM in the assay on EKVX NSCLC; > 100 µM with HCT-15 colon; 54 µM in the assay with MDA-MB-435; > 100 µM in the assay with NCI/ADR-RES ovarian; > 100 µM in the assay on CCRF-CEM leukemia. The total growth inhibition concentration (TGI) was 88.7 µM in the assay with KM12 colon, 45.6 µM with TK-10 renal, > 100 µM in the assay on HOP-92 NSCLC and > 100 µM in the assay with SK-OV-3 ovarian.

As to `Nc1ncnc2c(C3OC(CO)C(O)C3O)[nH]nc12` (stereo not drawn), the GI50 in the assay on OVCAR-3 ovarian was 0.168 µM and 0.071 µM; in the assay on EKVX NSCLC it was 1.6 µM; in the assay with HCT-15 colon, 0.0383 µM and 0.0444 µM; with MDA-MB-435, 0.356 µM; in the assay with NCI/ADR-RES ovarian, 0.0484 µM; with CCRF-CEM leukemia it was 4.68 µM and 2.77 µM. Besides, the GI50 in the assay on KM12 colon is 0.076 µM; with TK-10 renal it was 0.0778 µM; with HOP-92 NSCLC, 0.202 µM; in the assay with SK-OV-3 ovarian, 0.0323 µM and 0.0738 µM. Also, the TGI with OVCAR-3 ovarian is 1.79 µM and 0.377 µM; with HCT-15 colon it was 0.156 µM; in the assay with MDA-MB-435, 8.42 µM; in the assay on NCI/ADR-RES ovarian, 2.85 µM and 1.17 µM; in the assay on CCRF-CEM leukemia, 73.9 µM; in the assay with KM12 colon, 8.13 µM and 14.3 µM. Moreover, the TGI in the assay on TK-10 renal is 2.48 µM; in the assay with SK-OV-3 ovarian it was 0.241 µM and 0.6 µM.

Turning to `O=c1oc2ccc(Cl)cc2c(=O)n1-c1cc(C(F)(F)F)cc(C(F)(F)F)c1`, the GI50 in the assay on OVCAR-3 ovarian is 0.276 µM; in the assay on EKVX NSCLC it was 0.288 µM; in the assay on HCT-15 colon, 0.306 µM; with MDA-MB-435, 0.313 µM; in the assay with NCI/ADR-RES ovarian, 0.264 µM; with CCRF-CEM leukemia it was 0.388 µM. Moreover, the GI50 was 0.342 µM with KM12 colon, 0.395 µM in the assay on TK-10 renal, 0.112 µM in the assay with HOP-92 NSCLC and 0.205 µM in the assay on SK-OV-3 ovarian. For the same compound, the total growth inhibition concentration (TGI) is 10.7 µM with OVCAR-3 ovarian; 2.01 µM in the assay with EKVX NSCLC; 1.78 µM in the assay on HCT-15 colon; 2.07 µM in the assay on MDA-MB-435; 1.37 µM in the assay on NCI/ADR-RES ovarian; 10.2 µM in the assay with CCRF-CEM leukemia. The TGI with KM12 colon was found to be 1.32 µM; in the assay with TK-10 renal it was 11 µM; in the assay on HOP-92 NSCLC, 0.479 µM; with SK-OV-3 ovarian, 2.38 µM.

As to `CC[N+]1(C)CCC(O)(c2ccccc2)C(C(=O)c2ccccc2)C1` (stereo not drawn), the TGI in the assay with OVCAR-3 ovarian is 45.7 µM; in the assay on EKVX NSCLC, 43.4 µM; in the assay with HCT-15 colon, 21.8 µM; with MDA-MB-435, 34.2 µM; in the assay with NCI/ADR-RES ovarian, 83.6 µM; with CCRF-CEM leukemia, 6.89 µM. In addition, the TGI with KM12 colon was found to be 39.3 µM; with TK-10 renal, 31.4 µM; with HOP-92 NSCLC, 25.4 µM; in the assay on SK-OV-3 ovarian, 32.1 µM.

In the case of `Cc1ccc2c(Nc3cccc(Cl)c3F)ncc(NC(=O)c3csc4c(N)ncnc34)c2c1`, the GI50 in the assay with OVCAR-3 ovarian was > 100 µM; with EKVX NSCLC it was > 100 µM; with HCT-15 colon, > 100 µM; in the assay with MDA-MB-435, 0.326 µM; in the assay with NCI/ADR-RES ovarian, > 100 µM; in the assay on CCRF-CEM leukemia, 21.2 µM. Besides, the GI50 in the assay on KM12 colon is > 20.7 µM; with TK-10 renal, > 100 µM; with HOP-92 NSCLC, 0.136 µM; with SK-OV-3 ovarian, > 100 µM. Further, the TGI with OVCAR-3 ovarian, in the assay with EKVX NSCLC, in the assay with HCT-15 colon, in the assay on MDA-MB-435, with NCI/ADR-RES ovarian and in the assay with CCRF-CEM leukemia was > 100 µM in each case. Further, the TGI is > 100 µM in the assay on KM12 colon, > 100 µM in the assay with TK-10 renal, 1.72 µM in the assay on HOP-92 NSCLC and > 100 µM in the assay on SK-OV-3 ovarian.

Consider `CCOC(=O)c1ccc(Nc2sc(C(=O)c3cccc([N+](=O)[O-])c3)c(N)c2C#N)cc1`, for which the GI50 in the assay on OVCAR-3 ovarian is 0.0218 µM; in the assay with EKVX NSCLC, 0.469 µM; in the assay on HCT-15 colon, 0.102 µM; with MDA-MB-435 it was 0.0309 µM; with NCI/ADR-RES ovarian it was 0.0521 µM; in the assay on CCRF-CEM leukemia it was 0.067 µM. In addition, the GI50 in the assay with KM12 colon was 0.0678 µM; with TK-10 renal, 0.192 µM; with HOP-92 NSCLC, 0.109 µM; with SK-OV-3 ovarian it was 0.181 µM. Besides, the TGI with OVCAR-3 ovarian is 0.0617 µM; in the assay on EKVX NSCLC, > 75.8 µM; in the assay with HCT-15 colon, > 100 µM; in the assay with MDA-MB-435 it was 0.264 µM; in the assay on NCI/ADR-RES ovarian it was 25.7 µM; in the assay on CCRF-CEM leukemia, 8.34 µM. Moreover, the total growth inhibition concentration (TGI) came out at 6.43 µM with KM12 colon, 17.3 µM in the assay with TK-10 renal, 28.1 µM in the assay with HOP-92 NSCLC and 18.6 µM in the assay with SK-OV-3 ovarian.

Consider `COc1cc2ccnc3c2c(c1OC)-c1ccc(=O)ccc1-3`, for which the GI50 was 21.8 µM in the assay on OVCAR-3 ovarian; 29.8 µM in the assay with EKVX NSCLC; 22.5 µM with HCT-15 colon; 31.5 µM with MDA-MB-435; 17.4 µM with NCI/ADR-RES ovarian; 13.7 µM in the assay on CCRF-CEM leukemia. Besides, the GI50 in the assay on KM12 colon is 43.6 µM; with TK-10 renal, 35.1 µM; with HOP-92 NSCLC, 14.4 µM; in the assay with SK-OV-3 ovarian, 41.5 µM. Also, the TGI came out at 56.2 µM in the assay on OVCAR-3 ovarian; 99 µM with EKVX NSCLC; 77.1 µM in the assay on HCT-15 colon; 90.6 µM with MDA-MB-435; 57.6 µM in the assay with NCI/ADR-RES ovarian; 41.7 µM with CCRF-CEM leukemia. For the same compound, the TGI was > 100 µM in the assay with KM12 colon, 83.5 µM in the assay on TK-10 renal, 80.4 µM in the assay with HOP-92 NSCLC and > 100 µM in the assay on SK-OV-3 ovarian.

As for `Nc1ccn(C2CC(O)C(CO)O2)c(=O)n1` (stereo not drawn), the GI50 in the assay on OVCAR-3 ovarian, with EKVX NSCLC, in the assay on HCT-15 colon, with MDA-MB-435, with NCI/ADR-RES ovarian and in the assay with CCRF-CEM leukemia was > 5000 µM each time. Besides, the GI50 in the assay on KM12 colon, in the assay on TK-10 renal, with HOP-92 NSCLC and in the assay on SK-OV-3 ovarian was > 5000 µM each time. The TGI in the assay with OVCAR-3 ovarian, in the assay on EKVX NSCLC, with HCT-15 colon, in the assay with MDA-MB-435, in the assay on NCI/ADR-RES ovarian and with CCRF-CEM leukemia was > 5000 µM each time. Besides, the TGI with KM12 colon, in the assay with TK-10 renal, in the assay with HOP-92 NSCLC and in the assay with SK-OV-3 ovarian was > 5000 µM in each case.

For `CC1(C)N=C(N)N=C(N)N1c1cccc(CCCCc2ccccc2)c1`, the GI50 is 0.35 µM with OVCAR-3 ovarian; 0.87 µM in the assay with EKVX NSCLC; 1.73 µM in the assay with HCT-15 colon; 0.0616 µM in the assay with MDA-MB-435; > 73.4 µM in the assay on NCI/ADR-RES ovarian; 0.123 µM in the assay on CCRF-CEM leukemia. The 50% growth inhibitory concentration (GI50) is 0.212 µM in the assay with KM12 colon, 0.704 µM with TK-10 renal, 0.326 µM in the assay with HOP-92 NSCLC and 1.98 µM with SK-OV-3 ovarian. Further, the TGI in the assay on OVCAR-3 ovarian is 8.74 µM; with EKVX NSCLC, 20.6 µM; in the assay with HCT-15 colon it was 21.7 µM; in the assay with MDA-MB-435, 11.9 µM; with NCI/ADR-RES ovarian it was > 100 µM; in the assay on CCRF-CEM leukemia, 7.04 µM. The total growth inhibition concentration (TGI) in the assay on KM12 colon was 1.86 µM; in the assay on TK-10 renal it was 20.3 µM; in the assay with HOP-92 NSCLC it was 4.44 µM; with SK-OV-3 ovarian it was 17 µM.

Take `CC[C@H](C)[C@H](NC(=O)Nc1ccccc1)C(=O)N(C)[C@H](C[C@@H](OC(C)=O)c1nc(C(=O)N[C@@H](Cc2ccccc2)C[C@H](C)C(=O)OC)cs1)C(C)C`: the GI50 in the assay on OVCAR-3 ovarian was 2.32 µM; in the assay on EKVX NSCLC, 5.36 µM; in the assay with HCT-15 colon, 3.58 µM; in the assay on MDA-MB-435, 0.416 µM; in the assay on NCI/ADR-RES ovarian, 54.2 µM; with CCRF-CEM leukemia it was 2.25 µM. Besides, the GI50 in the assay on KM12 colon is 2.09 µM; with TK-10 renal, 9.56 µM; in the assay on HOP-92 NSCLC, 1.34 µM; in the assay on SK-OV-3 ovarian, 5.13 µM. For the same compound, the TGI with OVCAR-3 ovarian was 5.96 µM; in the assay on EKVX NSCLC it was > 100 µM; in the assay on HCT-15 colon it was > 100 µM; with MDA-MB-435, 1.86 µM; in the assay with NCI/ADR-RES ovarian, > 100 µM; with CCRF-CEM leukemia, > 100 µM. The TGI was > 100 µM with KM12 colon, > 100 µM in the assay on TK-10 renal, 62.9 µM with HOP-92 NSCLC and > 100 µM in the assay on SK-OV-3 ovarian.
